This is an account of results in ChEMBL document CHEMBL1201862, “PubChem BioAssay data set” (2004).

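Each compound was tested at five concentrations against cells in 96-well plates for 48 hours. GI50 marks 50% less growth.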 Activity calls are given as the source filed them. No stated cut-off is given here; in the data, active = GI50 up to about 1.1 µM and inactive = higher.

Among the test systems are A498; EKVX; HCT-116; HCT-15; HOP-62; IGROV-1; M14; NCI-H23; NCI-H460; OVCAR-8; SF-295; SK-MEL-5; SK-OV-3; SNB-19; Hs-578T; SK-MEL-28; SK-MEL-2; Malme-3M.
Experiment in all cases: NCI-60 cell line screen, 48 h

Consider `CNC1(c2cc3ccccc3s2)CCCCC1`, for which the GI50 in the assay with A498 is 33.3 µM (inactive); in the assay on EKVX, 0.433 µM (active); in the assay with HCT-116, 41.5 µM (inactive); with HCT-15 it was 31.8 µM; in the assay on HOP-62 it was 33.9 µM (inactive); with IGROV-1 it was 19.1 µM (inactive). The GI50 was 18 µM (inactive) with M14; 57.4 µM (inactive) with NCI-H23; 17.7 µM (inactive) with NCI-H460; 37.2 µM (inactive) in the assay with OVCAR-8; 25 µM (inactive) in the assay with SF-295; 16.3 µM (inactive) with SK-MEL-5. In addition, the GI50 with SK-OV-3 is 39 µM (inactive); in the assay with SNB-19, 41.8 µM (inactive).
For `O=C1OC(c2ccccc2)=N/C1=C\c1ccc([N+](=O)[O-])cc1`, the GI50 with A498 was 35.4 µM (inactive); with EKVX it was 36 µM (inactive); with HCT-116 it was 98.6 µM (inactive); in the assay with HCT-15 it was more than 100 µM; with HOP-62 it was 30.1 µM (inactive); in the assay with Hs-578T, 24.1 µM (inactive). Also, the GI50 in the assay with IGROV-1 was 27.9 µM (inactive); with M14, > 100 µM (inactive); with NCI-H23, 24.5 µM (inactive); with NCI-H460, > 100 µM (inactive); in the assay with OVCAR-8 it was 11.9 µM (inactive); in the assay with SF-295, 32.7 µM (inactive). Moreover, the GI50 with SK-MEL-28 is > 100 µM (inactive); with SK-MEL-2, 27.4 µM (inactive); in the assay with SK-MEL-5, 66.8 µM (inactive); with SK-OV-3, 34.7 µM (inactive); with SNB-19, 40.6 µM (inactive).
For the compound `CC1(C)CC(=O)c2c(nc3c(ccc4ccccc43)c2-c2ccc(NC(=O)CCCCCCCCC(=O)Nc3ccc(-c4c5c(nc6c4ccc4ccccc46)CC(C)(C)CC5=O)cc3)cc2)C1`, the GI50 was > 100 µM (inactive) with EKVX; > 100 µM (inactive) with HCT-116; > 100 µM (inactive) in the assay on HOP-62; > 100 µM (inactive) in the assay on Hs-578T; 0.017 µM (active) in the assay on IGROV-1; > 100 µM (inactive) in the assay on M14. For the same compound, the GI50 in the assay with NCI-H460, with OVCAR-8, with SF-295, in the assay on SK-MEL-28, with SK-MEL-2 and with SK-MEL-5 was > 100 µM (inactive) throughout. Also, the GI50 in the assay with SK-OV-3 and with SNB-19 was > 100 µM (inactive) in each case.
With `O=C1N/C(=N/N=C\c2ccccc2)N/C1=C/c1ccc(Cl)cc1`, the GI50 in the assay on EKVX was 19.4 µM (inactive); in the assay on HCT-116, 26.9 µM (inactive); with HCT-15, 15.3 µM; in the assay with HOP-62 it was 17.1 µM (inactive); in the assay on Hs-578T, 20.5 µM (inactive); in the assay with IGROV-1, 14.6 µM (inactive). Also, the GI50 with M14 was 37.4 µM (inactive); in the assay on Malme-3M, 20.8 µM (inactive); with NCI-H23 it was 19 µM (inactive); in the assay with NCI-H460 it was 18.4 µM (inactive); in the assay with OVCAR-8, 21.7 µM (inactive); in the assay on SF-295 it was 25.7 µM (inactive). Moreover, the GI50 was 39 µM (inactive) with SK-MEL-28; 26.5 µM (inactive) in the assay on SK-MEL-2; 19.3 µM (inactive) in the assay with SK-MEL-5; 20.7 µM (inactive) with SK-OV-3; 15.6 µM (inactive) with SNB-19.
Turning to `CCOC(=O)/C=C/C1(CCOC(C)=O)CCCCC1`, the GI50 in the assay with EKVX was > 10 µM (inactive); in the assay with HCT-116 it was > 10 µM (inactive); in the assay with HCT-15, more than 10 µM; in the assay on HOP-62, > 10 µM (inactive); in the assay on Hs-578T it was > 10 µM (inactive); in the assay with IGROV-1, > 10 µM (inactive). In addition, the GI50 in the assay with M14, in the assay with NCI-H23, with NCI-H460, with OVCAR-8, with SF-295 and with SK-MEL-28 was > 10 µM (inactive) throughout. Besides, the GI50 in the assay with SK-MEL-2, in the assay with SK-MEL-5, with SK-OV-3 and in the assay with SNB-19 was > 10 µM (inactive) each time.
As for `O=P1(c2ccccc2)C2=CCC=CC2C(c2ccccc2)N1Cc1ccccc1` (configuration not stated), the GI50 in the assay on EKVX was 14 µM (inactive); with HCT-116 it was 15.2 µM (inactive); with HCT-15, 14.5 µM; with HOP-62 it was 19.6 µM (inactive); in the assay with Hs-578T, 19 µM (inactive); in the assay on IGROV-1 it was 16.1 µM (inactive). Moreover, the GI50 was 17.1 µM (inactive) with M14; 17.8 µM (inactive) in the assay with Malme-3M; 12.3 µM (inactive) with NCI-H23; 13 µM (inactive) in the assay with NCI-H460; 19.6 µM (inactive) in the assay with OVCAR-8; 13.5 µM (inactive) in the assay on SF-295. The GI50 with SK-MEL-2 is 15.5 µM (inactive); with SK-MEL-5 it was 15.2 µM (inactive); in the assay with SK-OV-3, 17.1 µM (inactive); in the assay on SNB-19, 22.4 µM (inactive).
Consider `OCc1cc2c(ccc3sc4ccc5sc6ccc7ncccc7c6c5c4c32)s1`, for which the GI50 is 23.5 µM (inactive) with A498; 12.4 µM (inactive) in the assay on EKVX; 8.47 µM (inactive) in the assay on HCT-116; 10.7 µM in the assay with HCT-15; 12.7 µM (inactive) in the assay with HOP-62; 8.53 µM (inactive) with Hs-578T. In addition, the GI50 was 7.29 µM (inactive) with IGROV-1; 7.08 µM (inactive) with NCI-H460; 12.1 µM (inactive) in the assay with OVCAR-8; 12.5 µM (inactive) in the assay with SF-295; 27.2 µM (inactive) in the assay with SK-MEL-28; 14.5 µM (inactive) in the assay on SK-MEL-2. Moreover, the GI50 with SK-MEL-5 was 4.08 µM (inactive); with SK-OV-3, 18.4 µM (inactive); in the assay with SNB-19, 11.3 µM (inactive).
With `O=C1/C(=C2/CCCN2)C(c2ccc[nH]2)=NN1c1ccccc1`, the GI50 in the assay on A498 was > 100 µM (inactive); with EKVX, > 100 µM (inactive); in the assay on HCT-116, > 100 µM (inactive); with HCT-15 it was more than 100 µM; with M14, > 100 µM (inactive); in the assay with Malme-3M it was > 100 µM (inactive). Moreover, the GI50 with NCI-H23, with NCI-H460, in the assay with OVCAR-8, in the assay on SF-295, in the assay on SK-MEL-28 and in the assay with SK-MEL-2 was > 100 µM (inactive) throughout. Also, the GI50 with SK-MEL-5, with SK-OV-3 and in the assay on SNB-19 was > 100 µM (inactive) each time.
On to `O=C1CSC(c2ccc(Cl)cc2)N1c1ccc(Oc2ccc(Cl)cc2)c(Cl)c1` (configuration not stated), for which the GI50 in the assay on EKVX was 13.7 µM (inactive); with HCT-116, 15.7 µM (inactive); in the assay on HCT-15, 15.8 µM; in the assay with HOP-62, 21.3 µM (inactive); with Hs-578T it was 11 µM (inactive); in the assay with IGROV-1 it was 14.8 µM (inactive). Also, the GI50 was 16.7 µM (inactive) in the assay with M14; 7.66 µM (inactive) in the assay with Malme-3M; 16.9 µM (inactive) with NCI-H23; 18.5 µM (inactive) in the assay on NCI-H460; 17.5 µM (inactive) with OVCAR-8; 16.3 µM (inactive) in the assay with SF-295. Moreover, the GI50 was 17.7 µM (inactive) in the assay with SK-MEL-28; 16 µM (inactive) in the assay on SK-MEL-2; 17.1 µM (inactive) in the assay on SK-MEL-5; 17.6 µM (inactive) in the assay on SK-OV-3; 15.6 µM (inactive) in the assay on SNB-19.
For `COc1cc(C2SCC(=O)N2c2cc(Cl)c(Cl)cc2Cl)cc(OC)c1OC` (configuration not stated), the GI50 in the assay with A498 was 63 µM (inactive); with EKVX, 37.3 µM (inactive); in the assay on HCT-116, 38.3 µM (inactive); in the assay with HCT-15, 29.7 µM; in the assay with Hs-578T, 99.8 µM (inactive); in the assay on IGROV-1, 62.4 µM (inactive). In addition, the GI50 in the assay on M14 is 54.2 µM (inactive); with NCI-H23 it was 50.5 µM (inactive); with NCI-H460, 36.3 µM (inactive); in the assay on OVCAR-8, 66.5 µM (inactive); in the assay on SF-295 it was 49.8 µM (inactive); in the assay with SK-MEL-28 it was 84.5 µM (inactive). Moreover, the GI50 with SK-MEL-2 is 63 µM (inactive); with SK-MEL-5, 25.6 µM (inactive); in the assay with SK-OV-3 it was 40.7 µM (inactive); in the assay on SNB-19, 51.8 µM (inactive).
For `COc1ccc(C2OC[C@H]3O[C@@H](OCc4ccccc4)[C@H](O)[C@@H](O)[C@@H]3O2)cc1` (some centres not stated), the GI50 in the assay on A498 is > 100 µM (inactive); with EKVX, 68.5 µM (inactive); in the assay on HCT-116, > 100 µM (inactive); in the assay on HCT-15, more than 100 µM; in the assay with HOP-62 it was > 100 µM (inactive); in the assay with Hs-578T, 55.5 µM (inactive). For the same compound, the GI50 with IGROV-1 is 55 µM (inactive); with NCI-H23, > 100 µM (inactive); in the assay on NCI-H460, > 100 µM (inactive); with OVCAR-8, > 100 µM (inactive); in the assay on SF-295 it was > 100 µM (inactive); in the assay with SK-MEL-28, > 100 µM (inactive). Also, the GI50 in the assay on SK-MEL-2 is > 100 µM (inactive); in the assay with SK-MEL-5, 58.2 µM (inactive); in the assay with SK-OV-3, > 100 µM (inactive); in the assay with SNB-19, > 100 µM (inactive).
As to `COc1ccc2oc(-c3ccncc3)cc(=O)c2c1`, the GI50 in the assay on A498 is > 100 µM (inactive); with HCT-116, > 100 µM (inactive); with HCT-15, more than 100 µM; in the assay with HOP-62 it was > 100 µM (inactive); with IGROV-1 it was 82 µM (inactive); in the assay with M14, > 100 µM (inactive). The GI50 with Malme-3M is 39.8 µM (inactive); in the assay with NCI-H23 it was > 100 µM (inactive); with NCI-H460 it was > 100 µM (inactive); in the assay with SF-295 it was > 100 µM (inactive); in the assay on SK-MEL-28 it was > 100 µM (inactive); in the assay on SK-MEL-2 it was > 100 µM (inactive). Also, the GI50 in the assay on SNB-19 is > 100 µM (inactive).
Regarding `C[C@@H]1OC(=O)/C(=C\N(C)C)[C@H]2CC(=O)N(CCc3cn(S(=O)(=O)C(F)(F)F)c4ccccc34)C[C@H]12`, the GI50 in the assay with A498 is > 100 µM (inactive); in the assay on EKVX, > 100 µM (inactive); in the assay on HCT-116, > 100 µM (inactive); in the assay on HCT-15, more than 100 µM; in the assay on HOP-62 it was > 100 µM (inactive); with IGROV-1, > 100 µM (inactive). Also, the GI50 in the assay on M14, in the assay on Malme-3M, with NCI-H23, in the assay on NCI-H460, with SF-295 and in the assay on SK-MEL-28 was > 100 µM (inactive) each time. In addition, the GI50 in the assay with SK-MEL-2, in the assay with SK-MEL-5, with SK-OV-3 and in the assay on SNB-19 was > 100 µM (inactive) throughout.
